Assay results reported in ChEMBL document CHEMBL6182853, “Design, synthesis, and biological evaluation of hypoxic-activation prodrug TH-302 derivatives” (Bioorg Med Chem Lett, 2025).

Tests used:
SK-OV-3 [1] = test: Antiproliferative activity against human SK-OV-3 cells assessed as suppression ratio at 50 uM by enzyme-linked immunosorbent assay relative to control; assay type: functional
SK-OV-3 [2] = test: Antiproliferative activity against human SK-OV-3 cells assessed as suppression ratio at 5 uM by enzyme-linked immunosorbent assay relative to control; assay type: functional
U-87 MG [3] = test: Antiproliferative activity against human U-87 MG cells assessed as suppression ratio at 5 uM by enzyme-linked immunosorbent assay relative to control; assay type: functional, U-87MG ATCC
U-87 MG [4] = test: Antiproliferative activity against human U-87 MG cells assessed as suppression ratio at 50 uM by enzyme-linked immunosorbent assay relative to control; assay type: functional, U-87MG ATCC
SK-OV-3 [5] = test: Anti-tumor activity against human SK-OV-3 cells assessed as inhibition rate at 140 uM by CCK-8 assay relative to control; assay type: functional
U-87 MG [6] = test: Anti-tumor activity against human U87 MG cells by CCK-8 assay; assay type: functional, cell-based, U-87MG ATCC
U-87 MG [7] = test: Anti-tumor activity against human U87 MG cells assessed as inhibition rate at 140 uM by CCK-8 assay relative to control; assay type: functional, U-87MG ATCC
SK-OV-3 [8] = test: Anti-tumor activity against human SK-OV-3 cells by CCK-8 assay; assay type: functional, cell-based

Structure (SMILES) | inhibition at 50 µM (SK-OV-3 [1]) [%] | inhibition at 5 µM (SK-OV-3 [2]) [%] | inhibition at 5 µM (U-87 MG [3]) [%] | inhibition at 50 µM (U-87 MG [4]) [%] | inhibition at 140 µM (SK-OV-3 [5]) [%] | IC50 (U-87 MG [6]) [µM] | inhibition at 140 µM (U-87 MG [7]) [%] | IC50 (SK-OV-3 [8]) [µM]
CCn1cnc([N+](=O)[O-])c1COP(=O)(NCCCl)NCCCl | -2 | -16 | 1 | 11 |  |  |  | 
Cn1cnc([N+](=O)[O-])c1COP(=O)(NCCCl)NCCCl | 4 | -38 | 13 | 22 |  |  |  | 
CCCn1cnc([N+](=O)[O-])c1COP(=O)(NCCCl)NCCCl | 8 | -5 | 5 | 15 |  |  |  | 
CC(C)n1cc(COP(=O)(NCCBr)NCCBr)nc1[N+](=O)[O-] | 68 | -16 | 30 | 68 | 90 | 41 | 90 | 32
CCn1cc(COP(=O)(NCCBr)NCCBr)nc1[N+](=O)[O-] | 32 | -3 | 25 | 43 |  |  |  | 
CC(C)n1cnc([N+](=O)[O-])c1COP(=O)(NCCCl)NCCCl | 16 | 11 | 12 | 10 |  |  |  | 
CCn1cnc([N+](=O)[O-])c1COP(=O)(NCCBr)NCCBr | 59 | -11 | -3 | 39 |  |  |  | 
CCn1c(COP(=O)(NCCBr)NCCBr)cnc1[N+](=O)[O-] | 20 | -13 | 25 | 31 |  |  |  | 
Cn1cnc([N+](=O)[O-])c1COP(=O)(NCCBr)NCCBr | 66 | -4 | 17 | 55 |  | 98 |  | 74
CCCn1cnc([N+](=O)[O-])c1COP(=O)(NCCBr)NCCBr | 52 | 3 | -3 | 45 |  |  |  | 
CCCn1cc(COP(=O)(NCCBr)NCCBr)nc1[N+](=O)[O-] | 20 | -32 | 21 | 35 |  |  |  | 
CC(C)n1c(COP(=O)(NCCBr)NCCBr)cnc1[N+](=O)[O-] | 10 | -15 | 24 | 23 |  |  |  | 
CC(C)n1cnc([N+](=O)[O-])c1COP(=O)(NCCBr)NCCBr | 41 | 4 | 16 | 47 |  |  |  | 
Cn1cc(COP(=O)(NCCBr)NCCBr)nc1[N+](=O)[O-] | 48 | -14 | 16 | 32 |  |  |  | 
CCCn1c(COP(=O)(NCCBr)NCCBr)cnc1[N+](=O)[O-] | 77 | -2 | 30 | 69 | 90 | 47 | 90 | 42
Cn1c(COP(=O)(NCCBr)NCCBr)cnc1[N+](=O)[O-] [EVOFOSFAMIDE] | 65 | 10 | 9 | 68 |  | 61 |  | 62
